Here are results for two compounds from US9980943B2, “Methods of treating muscular dystrophy” (BOARD OF REGENTS OF THE NEVADA SYSTEM OF HIGHER EDUCATION, …, priority 2013, dated 2018).

Common to all, as to assay type: cell-based, mouse
Experiment [1] has as its system β-galactosidase in CMV-LacZ C2C12 myoblasts. Put plainly: CMV-LacZ secondary screen in C2C12 myoblasts (β-Gal stabilizing assay). The conditions noted are these: CMV-LacZ C2C12 myoblasts. The procedure, abridged:
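Stable CMV-LacZ C2C12 clone; six-point curve 0.5–40 μM; duplicates.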

Experiment [2] has as its system α7 integrin (LacZ reporter in α7+/LacZ myotubes). Put plainly: Myotube α7 integrin FDG assay (Burkin assay in myotubes, 96-well). The conditions noted are these: myotubes.
In experiment [3] the test system is β-galactosidase in CMV-LacZ C2C12 myotubes. Briefly: CMV-LacZ secondary screen in C2C12 myotubes (β-Gal stabilizing assay). The conditions noted are these: C2C12 CMV-LacZ myotubes, fold relative to DMSO. An outline of the steps:
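β-Gal level was the read-out, measured in a clonal C2C12 line expressing LacZ from a CMV promoter. Dose-response curves used six concentrations, 0.5 μM up to 40 μM, with duplicate points.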

Experiment [4] concerns α7 integrin (LacZ reporter in α7βgal+/− myoblasts). Put plainly: Myoblast α7+/LacZ integrin FDG assay (Burkin assay in myoblasts, 96-well). The conditions noted are these: α7+/LacZ myoblasts, 96-well.

In the case of `O=c1[nH]c(SCc2ccc(Cl)cc2)nc2ccsc12` [MLS000755214-01], the “CMV-LACZ in Myoblasts (β-galactosidase activity relative to DMSO)” value came out at 1.0190 in experiment [1] (0.5 uM); 1.1650 in experiment [1] (1 uM); 0.9281 in experiment [1] (5 uM); 1.0994 in experiment [1] (10 uM); 1.0835 in experiment [1] (20 uM); 0.8172 in experiment [1] (40 uM). For the same compound, the “Burkin Assay in Myotubes, α7 integrin LacZ reporter signal relative to DMSO” value in experiment [2] (0.5 uM) was found to be 1.01; in experiment [2] (1 uM), 0.9661; in experiment [2] (5 uM) it was 0.9321; in experiment [2] (10 uM), 1.0353; in experiment [2] (20 uM), 0.9655; in experiment [2] (40 uM) it was 0.8312. In addition, the “CMV-LACZ in Myotubes, signal relative to DMSO” value in experiment [3] (0.5 uM) came to 0.9543; in experiment [3] (1 uM) it was 0.8600; in experiment [3] (5 uM) it was 1.0763; in experiment [3] (10 uM), 1.0591; in experiment [3] (20 uM) it was 0.9280; in experiment [3] (40 uM), 1.0190. Besides, the “Burkin Assay in Myoblasts, signal relative to DMSO” value in experiment [4] (0.5 uM) was 1.077; in experiment [4] (1 uM) it was 1.021; in experiment [4] (5 uM) it was 0.9757; in experiment [4] (10 uM) it was 0.9635; in experiment [4] (20 uM), 0.8448; in experiment [4] (40 uM), 0.861.

`O=C(CNC(=O)c1cccc(F)c1)N/N=C/c1cc(Br)ccc1OCc1ccccc1` [MLS000591667-01]: the “CMV-LACZ in Myoblasts (β-galactosidase activity relative to DMSO)” value in experiment [1] (0.5 uM) was 0.9491; in experiment [1] (1 uM), 0.7850; in experiment [1] (5 uM), 1.1587; in experiment [1] (10 uM), 1.1592; in experiment [1] (20 uM), 0.8030; in experiment [1] (40 uM), 1.0593. Further, the “Burkin Assay in Myotubes, α7 integrin LacZ reporter signal relative to DMSO” value in experiment [2] (0.5 uM) turned out to be 1.005; in experiment [2] (1 uM), 1.1434; in experiment [2] (5 uM) it was 1.072; in experiment [2] (10 uM), 0.9986; in experiment [2] (20 uM), 0.6781; in experiment [2] (40 uM), 0.6965. In addition, the “CMV-LACZ in Myotubes, signal relative to DMSO” value was 0.8600 in experiment [3] (0.5 uM); 1.0726 in experiment [3] (1 uM); 1.0824 in experiment [3] (5 uM); 1.0152 in experiment [3] (10 uM); 0.8929 in experiment [3] (20 uM); 0.8800 in experiment [3] (40 uM). Moreover, the “Burkin Assay in Myoblasts, signal relative to DMSO” value in experiment [4] (0.5 uM) is recorded as 0.9901; in experiment [4] (1 uM), 1.034; in experiment [4] (5 uM), 1.132; in experiment [4] (10 uM), 1.088; in experiment [4] (20 uM), 0.8623; in experiment [4] (40 uM) it was 1.1351.
